Molecules are shown by their SMILES. The source made the active and inactive calls. The rule behind the calls is not given here.

For this series, the system named is CCRIS mutagenicity, Ames/micronucleus/aberration tests. The experiment in a line: CCRIS mutagenicity studies.
Setting [1] is: Test System: AMES SALMONELLA TYPHIMURIUM, Strain/Indicator: TA98, Metabolic Activation: NONE, Method: STANDARD PLATE.
[2] abbreviates: Test System: AMES SALMONELLA TYPHIMURIUM, Strain/Indicator: TA100, Metabolic Activation: NONE, Method: STANDARD PLATE.

For the compound `C[C@]12C=CC(=O)C=C1CC[C@@H]1[C@@H]2C(=O)C[C@@]2(C)[C@H]1CC[C@]2(O)C(=O)CO`, the mutagenic call was “inactive; negative” (Test System: AMES SALMONELLA TYPHIMURIUM, Strain/Indicator: TA98, Metabolic Activation: HAMSTER, LIVER, S-9, AROCLOR 1254 (10%), Method: STANDARD PLATE); “inactive; negative” under setting [1]; “inactive; negative” (Test System: AMES SALMONELLA TYPHIMURIUM, Strain/Indicator: TA98, Metabolic Activation: RAT, LIVER, S-9, AROCLOR 1254 (10%), Method: STANDARD PLATE); “inactive; negative” (Test System: AMES SALMONELLA TYPHIMURIUM, Strain/Indicator: TA100, Metabolic Activation: HAMSTER, LIVER, S-9, AROCLOR 1254 (10%), Method: STANDARD PLATE); “inactive; negative” under setting [2]; “inactive; negative” (Test System: AMES SALMONELLA TYPHIMURIUM, Strain/Indicator: TA100, Metabolic Activation: RAT, LIVER, S-9, AROCLOR 1254 (10%), Method: STANDARD PLATE). For the same compound, the mutagenic call reads like this: (Test System: AMES SALMONELLA TYPHIMURIUM, Strain/Indicator: TA1535, Metabolic Activation: HAMSTER, LIVER, S-9, AROCLOR 1254 (10%), Method: STANDARD PLATE) “inactive; negative”; (Test System: AMES SALMONELLA TYPHIMURIUM, Strain/Indicator: TA1535, Metabolic Activation: NONE, Method: STANDARD PLATE) “inactive; negative”; (Test System: AMES SALMONELLA TYPHIMURIUM, Strain/Indicator: TA1535, Metabolic Activation: RAT, LIVER, S-9, AROCLOR 1254 (10%), Method: STANDARD PLATE) “inactive; negative”; (Test System: AMES SALMONELLA TYPHIMURIUM, Strain/Indicator: TA1537, Metabolic Activation: HAMSTER, LIVER, S-9, AROCLOR 1254 (10%), Method: STANDARD PLATE) “inactive; negative”; (Test System: AMES SALMONELLA TYPHIMURIUM, Strain/Indicator: TA1537, Metabolic Activation: NONE, Method: STANDARD PLATE) “inactive; negative”; (Test System: AMES SALMONELLA TYPHIMURIUM, Strain/Indicator: TA1537, Metabolic Activation: RAT, LIVER, S-9, AROCLOR 1254 (10%), Method: STANDARD PLATE) “inactive; negative”. Also, the mutagenic call reads like this: (Test System: AMES SALMONELLA TYPHIMURIUM, Strain/Indicator: TA1538, Metabolic Activation: HAMSTER, LIVER, S-9, AROCLOR 1254 (10%), Method: STANDARD PLATE) “inactive; negative”; (Test System: AMES SALMONELLA TYPHIMURIUM, Strain/Indicator: TA1538, Metabolic Activation: NONE, Method: STANDARD PLATE) “inactive; negative”; (Test System: AMES SALMONELLA TYPHIMURIUM, Strain/Indicator: TA1538, Metabolic Activation: RAT, LIVER, S-9, AROCLOR 1254 (10%), Method: STANDARD PLATE) “inactive; negative”; (Test System: MOUSE LYMPHOMA, Strain/Indicator: L5178Y (TK+/TK-), Metabolic Activation: NONE, Method: SUSPENSION/PLATE) “inactive; negative. reevaluation of results: negative”; (Test System: MOUSE LYMPHOMA, Strain/Indicator: L5178Y (TK+/TK-), Metabolic Activation: RAT, LIVER, S-9, AROCLOR 1254, Method: SUSPENSION/PLATE) “inactive; negative. reevaluation of results: inconclusive”.
On to `CCC1(C)CO1` (stereo not given), for which the mutagenic call under setting [1] is “inactive; negative” and the mutagenic call under setting [2] is “inactive; negative”.
As to `Cc1nc2c(C)c(C)c3c(nc(N)n3C)c2nc1C`, the mutagenic call (Test System: AMES SALMONELLA TYPHIMURIUM, Strain/Indicator: TA98, Metabolic Activation: RAT, LIVER, S-9, AROCLOR 1254, Method: STANDARD PLATE) was “active; positive”.
As for `COc1ccc(CCl)cc1`, the mutagenic call under setting [2] is “inactive; negative”.
With `C=CCc1[c-]cccc1.C=CCc1[c-]cccc1.[Pt+2]`, the mutagenic call was “inactive; negative” (Test System: AMES SALMONELLA TYPHIMURIUM, Strain/Indicator: TA92, Metabolic Activation: NONE, Method: STANDARD PLATE); “inactive; negative” under setting [1]; “inactive; negative” under setting [2]; “inactive; negative” (Test System: AMES SALMONELLA TYPHIMURIUM, Strain/Indicator: TA2410, Metabolic Activation: NONE, Method: STANDARD PLATE).

The values are drawn from PubChem BioAssay AID1259407 (Chemical Carcinogenesis Research Information System (CCRIS), 2018).
